The text below walks through data of US20080269170A1, “Novel 2,4-Dianilinopyrimidine Derivatives, the Preparation Thereof, Their Use as Medicaments, Pharmaceutical Compositions and, in Particular, as IKK Inhibitors” (sanofi-aventis, priority 2005, published 2008).

Usually melting point stands for the temperature of the solid-liquid transition.

In turn, `CCN1CCC(N(C)S(=O)(=O)c2ccc(Nc3nccc(Nc4ccc(F)cc4)n3)cc2)CC1` [Example 10, N-(1-Ethylpiperidin-4-yl)-4-[4-(4-fluoro-phenylamino)pyrimidin-2-ylamino]-N-methylbenzene-sulfonamide] displayed a melting point of 162 to 163 °C.
The compound `CN1CCC(N(C)S(=O)(=O)c2ccc(Nc3nccc(Nc4ccc(F)c(F)c4)n3)cc2)CC1` [Example 11, 4-[4-(3,4-Difluorophenylamino)pyrimidin-2-ylamino]-N-methyl-N-(1-methylpiperidin-4-yl)benzene-sulfonamide] gave a melting point of 181 to 183 °C.
In turn, `CN1CCC(N(C)S(=O)(=O)c2ccc(Nc3nccc(Nc4ccc(F)c(Cl)c4)n3)cc2)CC1` [Example 12, 4-[4-(3-Chloro-4-fluorophenylamino)pyrimidin-2-ylamino]-N-methyl-N-(1-methylpiperidin-4-yl)benzenesulfonamide] gave a melting point of 183 to 186 °C.
In turn, `CN(C1CCN(Cc2cccs2)CC1)S(=O)(=O)c1ccc(Nc2nccc(Nc3ccc(F)cc3)n2)cc1` [Example 13, 4-[4-(4-Fluorophenylamino)pyrimidin-2-ylamino]-N-methyl-N-(1-thiophen-2-ylmethylpiperidin-4-yl)benzenesulfonamide] displayed a melting point of 175 to 176 °C.
`CN1CCC(N(C2CC2)S(=O)(=O)c2ccc(Nc3nccc(Nc4ccc(F)cc4)n3)cc2)CC1` [Example 14, N-Cyclopropyl-4-[4-(4-fluorophenylamino)-pyrimidin-2-ylamino]-N-(1-methylpiperidin-4-yl)benzene-sulfonamide] registered a melting point of 218 °C.
Consider `CCN(C1CCN(Cc2ccccc2)C1)S(=O)(=O)c1ccc(Nc2nccc(Nc3ccc(F)cc3)n2)cc1` (stereo not drawn) [Example 15, N-(1-Benzylpyrrolidin-3-yl)-4-[4-(4-fluoro-phenylamino)pyrimidin-2-ylamino]-N-ethylbenzene-sulfonamide], for which the melting point is 125 to 127 °C.
For `CN(C1CCN(Cc2ccsc2)CC1)S(=O)(=O)c1ccc(Nc2nccc(Nc3ccc(F)cc3)n2)cc1` [Example 16, 4-[4-(4-Fluorophenylamino)pyrimidin-2-ylamino]-N-methyl-N-(1-thiophen-3-ylmethylpiperidin-4-yl)benzenesulfonamide], the melting point fell in the range of 173 to 174 °C.
The compound `CN(C)CCN(C1CCN(C)CC1)S(=O)(=O)c1ccc(Nc2nccc(Nc3ccc(F)cc3)n2)cc1` [Example 18, N-(2-Dimethylaminoethyl)-4-[4-(4-fluoro-phenylamino)pyrimidin-2-ylamino]-N-(1-methylpiperidin-4-yl)benzenesulfonamide] registered a melting point of 135 to 137 °C.
The same measure for `CN1CCC(N(CCO)S(=O)(=O)c2ccc(Nc3nccc(Nc4ccc(F)cc4)n3)cc2)CC1` [Example 19, 4-[4-(4-Fluorophenylamino)pyrimidin-2-ylamino]-N-(2-hydroxyethyl)-N-(1-methylpiperidin-4-yl)-benzenesulfonamide]: 125 to 135 °C; for `CN1CCC(N(C)S(=O)(=O)c2ccc(Nc3nc(Cl)cc(Nc4ccc(F)cc4)n3)cc2)CC1` [Example 20, 4-[4-Chloro-6-(4-fluorophenylamino)pyrimidin-2-ylamino]-N-methyl-N-(1-methylpiperidin-4-yl)benzenesulfonamide]: 140 to 142 °C; for `CN1CCC(N(C)C(=O)CNS(=O)(=O)c2ccc(Nc3nccc(Nc4ccc(F)cc4)n3)cc2)CC1` [Example 25, 2-{4-[4-(4-Fluorophenylamino)pyrimidin-2-ylamino]benzenesulfonylamino}-N-methyl-N-(1-methyl-piperidin-4-yl)acetamide]: 233 to 234.4 °C.
With `CN(C1CCN(Cc2cc[n+]([O-])cc2)CC1)S(=O)(=O)c1ccc(Nc2nccc(Nc3ccc(F)cc3)n2)cc1` [Example 29, 4-[4-(4-Fluorophenylamino)pyrimidin-2-ylamino]-N-[1-(1-N-oxidepyridin-4-ylmethyl)piperidin-4-yl]-N-methylbenzenesulfonamide], the melting point lay in the range of 155 to 156 °C.
For the compound `Cc1ncc(CN2CCC(N(C)S(=O)(=O)c3ccc(Nc4nccc(Nc5ccc(F)cc5)n4)cc3)CC2)[nH]1` [Example 30, 4-[4-(4-Fluorophenylamino)pyrimidin-2-ylamino]-N-methyl-N-[1-(2-methyl-3H-imidazol-4-ylmethyl)piperidin-4-yl]benzenesulfonamide], the melting point was 155 °C.
For `CN(C1CCN(Cc2ccccc2F)CC1)S(=O)(=O)c1ccc(Nc2nccc(Nc3ccc(F)cc3)n2)cc1` [Example 31, N-[1-(2-Fluorobenzyl)piperidin-4-yl]-4-[4-(4-fluorophenylamino)pyrimidin-2-ylamino]-N-methyl-benzenesulfonamide] the value was 182 to 183 °C; for `CN(C1CCN(Cc2cccc(F)c2)CC1)S(=O)(=O)c1ccc(Nc2nccc(Nc3ccc(F)cc3)n2)cc1` [Example 32, N-[1-(3-Fluorobenzyl)piperidin-4-yl]-4-[4-(4-fluorophenylamino)pyrimidin-2-ylamino]-N-methyl-benzenesulfonamide], 207 °C.
For `CN(C1CCN(Cc2ccc(F)cc2)CC1)S(=O)(=O)c1ccc(Nc2nccc(Nc3ccc(F)cc3)n2)cc1` [Example 33, N-[1-(4-Fluorobenzyl)piperidin-4-yl]-4-[4-(4-fluorophenylamino)pyrimidin-2-ylamino]-N-methyl-benzenesulfonamide] the value was 129 to 131 °C; for `CC(C)N1CCC(N(C)S(=O)(=O)c2ccc(Nc3nccc(Nc4ccc(F)cc4)n3)cc2)CC1` [Example 37, 4-[4-(4-Fluorophenylamino)pyrimidin-2-yl-amino]-N-(1-isopropylpiperidin-4-yl)-N-methylbenzene-sulfonamide], 202 to 203 °C.
Turning to `CC(C)CN1CCC(N(C)S(=O)(=O)c2ccc(Nc3nccc(Nc4ccc(F)cc4)n3)cc2)CC1` [Example 38, 4-[4-(4-Fluorophenylamino)pyrimidin-2-yl-amino]-N-(1-isobutylpiperidin-4-yl)-N-methylbenzene-sulfonamide], the melting point is 194 to 195 °C.
Compound `CC(C)CCN1CCC(N(C)S(=O)(=O)c2ccc(Nc3nccc(Nc4ccc(F)cc4)n3)cc2)CC1` [Example 39, 4-[4-(4-Fluorophenylamino)pyrimidin-2-yl-amino]-N-methyl-N-[1-(3-methylbutyl)piperidin-4-yl]-benzenesulfonamide] showed a melting point of 184 to 185 °C.
Turning to `CN(C1CCN(CCCC(F)(F)F)CC1)S(=O)(=O)c1ccc(Nc2nccc(Nc3ccc(F)cc3)n2)cc1` [Example 40, 4-[4-(4-Fluorophenylamino)pyrimidin-2-yl-amino]-N-methyl-N-[1-(4,4,4-trifluorobutyl)piperidin-4-yl]benzenesulfonamide], the melting point was 166 to 167 °C.
For `Cc1cc(Nc2ccnc(Nc3ccc(S(=O)(=O)N(CCN)C4CCNCC4)cc3)n2)ccc1F` [Example 48, N-(2-Aminoethyl)-4-[4-(4-fluoro-3-methyl-phenylamino)pyrimidin-2-ylamino]-N-piperidin-4-yl-benzenesulfonamide] the value was 242 to 244 °C.
As to `CN(C1CCN(CC(C)(C)O)CC1)S(=O)(=O)c1ccc(Nc2nccc(Nc3ccc(F)cc3)n2)cc1` [Example 49, 4-[4-(4-Fluorophenylamino)pyrimidin-2-yl-amino]-N-[1-(2-hydroxy-2-methylpropyl)piperidin-4-yl]-N-methylbenzenesulfonamide], the melting point was 216 to 217 °C.
The same measure for `Cc1cc(Nc2ccnc(Nc3ccc(S(=O)(=O)N(C)C4CCN(C)CC4)cc3)n2)ccc1F` [Example 86, 4-({4-[(4-fluoro-3-methylphenyl)amino]-pyrimidin-2-yl}amino)-N-methyl-N-(1-methylpiperidin-4-yl)benzenesulfonamide]: 110 to 120 °C; for `Cc1cc(Nc2ccnc(Nc3ccc(S(=O)(=O)N(CCN4CCCC4)C4CCN(C)CC4)cc3)n2)ccc1F` [Example 87, 4-({4-[(4-Fluoro-3-methylphenyl)amino]-pyrimidin-2-yl}amino)-N-(1-methylpiperidin-4-yl)-N-(2-pyrrolidin-1-ylethyl)benzenesulfonamide]: 93 to 103 °C.
Consider `CN1CCC(N(CCN2CCCC2)S(=O)(=O)c2ccc(Nc3nccc(Nc4ccc(F)cc4)n3)cc2)CC1` [Example 89, 4-({4-[(4-Fluorophenyl)amino]pyrimidin-2-yl}amino)-N-(1-methylpiperidin-4-yl)-N-(2-pyrrolidin-1-ylethyl)benzenesulfonamide], for which the melting point came out at 250 °C.
For `CC(C)(O)CNCCN(C1CCNCC1)S(=O)(=O)c1ccc(Nc2nccc(Nc3ccc(F)cc3)n2)cc1` [Example 102, 4-({4-[(4-Fluorophenyl)amino]pyrimidin-2-yl}amino)-N-{2-[(2-hydroxy-2-methylpropyl)amino]ethyl}-N-piperidin-4-ylbenzenesulfonamide] the value was 120 °C; for `O=S(=O)(c1ccc(Nc2nccc(Nc3ccc(F)cc3)n2)cc1)N(CCNCC(F)(F)F)C1CCN(Cc2ccccc2)CC1` [Example 103, N-(1-Benzylpiperidin-4-yl)-4-({4-[(4-fluorophenyl)amino]pyrimidin-2-yl}amino)-N-{2-[(2,2,2-trifluoroethyl)amino]ethyl}benzenesulfonamide], 137 to 138 °C; for `CCN1CC(N(CCN2CCCC2)S(=O)(=O)c2ccc(Nc3nccc(Nc4ccc(F)c(C)c4)n3)cc2)C1` [Example 104, N-(1-Ethylazetidin-3-yl)-4-({4-[(4-fluoro-3-methylphenyl)amino]pyrimidin-2-yl}amino)-N-(2-pyrrolidin-1-ylethyl)benzenesulfonamide], 195 °C.
For `CN(C1CCN(CCC(F)(F)F)CC1)S(=O)(=O)c1ccc(Nc2nccc(Nc3ccc(F)cc3)n2)cc1` [Example 107, 4-({4-[(4-Fluorophenyl)amino]pyrimidin-2-yl}amino)-N-methyl-N-[1-(3,3,3-trifluoropropyl)piperidin-4-yl]benzenesulfonamide] the value was 195 to 196 °C; for `CN(C1CCN(CCCC(F)(F)F)CC1)S(=O)(=O)c1ccc(Nc2nccc(Nc3ccc(F)c(F)c3)n2)cc1` [Example 108, 4-({4-[(3,4-Difluorophenyl)amino]pyrimidin-2-yl}amino)-N-methyl-N-[1-(4,4,4-trifluorobutyl)-piperidin-4-yl]benzenesulfonamide], 192 °C.
